From PubChem BioAssay (NCI)
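Dose response: 5 concentrations. Exposure: 48 h. Format: 96-well plates. Endpoint: linear interpolation; highest concentration if not reached. TGI: total growth inhibition.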

What was measured:
Assay in all cases: DTP human tumour cell line panel, 48 h
M14 melanoma = test system: M14 melanoma
HL-60(TB) leukemia = test system: HL-60(TB) leukemia
NCI-H23 lung = test system: NCI-H23 lung
HCC-2998 colon = test system: HCC-2998 colon
HT29 colon = test system: HT29 colon
RXF 393 renal = test system: RXF 393 renal
DU-145 prostate = test system: DU-145 prostate
UACC-257 melanoma = test system: UACC-257 melanoma
BT-549 breast = test system: BT-549 breast
CAKI-1 renal = test system: CAKI-1 renal
SF-295 CNS = test system: SF-295 CNS
SF-268 CNS = test system: SF-268 CNS
PC-3 prostate = test system: PC-3 prostate
OVCAR-4 ovarian = test system: OVCAR-4 ovarian
SN12C renal = test system: SN12C renal
MDA-MB-435 = test system: MDA-MB-435
MDA-MB-231 breast = test system: MDA-MB-231 breast
SR leukemia = test system: SR leukemia
IGROV1 ovarian = test system: IGROV1 ovarian
UO-31 renal = test system: UO-31 renal
SK-MEL-5 melanoma = test system: SK-MEL-5 melanoma
LOX IMVI melanoma = test system: LOX IMVI melanoma
786-0 renal = test system: 786-0 renal
OVCAR-8 ovarian = test system: OVCAR-8 ovarian
SK-OV-3 ovarian = test system: SK-OV-3 ovarian
MDA-N = test system: MDA-N
OVCAR-3 ovarian = test system: OVCAR-3 ovarian
TK-10 renal = test system: TK-10 renal
SNB-19 CNS = test system: SNB-19 CNS
HOP-92 NSCLC = test system: HOP-92 NSCLC
T-47D breast = test system: T-47D breast
CCRF-CEM leukemia = test system: CCRF-CEM leukemia
HS 578T breast = test system: HS 578T breast
NCI/ADR-RES ovarian = test system: NCI/ADR-RES ovarian
HCT-116 colon = test system: HCT-116 colon
NCI-H522 lung = test system: NCI-H522 lung
COLO 205 colon = test system: COLO 205 colon
NCI-H460 lung = test system: NCI-H460 lung
EKVX NSCLC = test system: EKVX NSCLC
MCF7 breast = test system: MCF7 breast
OVCAR-5 ovarian = test system: OVCAR-5 ovarian
MALME-3M melanoma = test system: MALME-3M melanoma
HOP-62 NSCLC = test system: HOP-62 NSCLC
ACHN renal = test system: ACHN renal
UACC-62 melanoma = test system: UACC-62 melanoma
A498 renal = test system: A498 renal
SNB-75 CNS = test system: SNB-75 CNS
SK-MEL-28 melanoma = test system: SK-MEL-28 melanoma
MOLT-4 leukemia = test system: MOLT-4 leukemia
A549 NSCLC = test system: A549 NSCLC
NCI-H226 lung = test system: NCI-H226 lung
SF-539 CNS = test system: SF-539 CNS
SW-620 colon = test system: SW-620 colon
HCT-15 colon = test system: HCT-15 colon
KM12 colon = test system: KM12 colon
RPMI-8226 leukemia = test system: RPMI-8226 leukemia
U251 CNS = test system: U251 CNS
K-562 leukemia = test system: K-562 leukemia
SK-MEL-2 melanoma = test system: SK-MEL-2 melanoma

Structure (SMILES): O=C1C=CC(=O)c2c(O)c(N3CCN(c4ccccn4)CC3)c(Cl)c(O)c21
- TGI (M14 melanoma): 2.85 µM
- TGI (HL-60(TB) leukemia): 0.692 µM
- TGI (NCI-H23 lung): 2.45 µM
- TGI (HCC-2998 colon): 5.99 µM
- TGI (HT29 colon): 2.05 µM
- TGI (RXF 393 renal): 3.16 µM
- TGI (DU-145 prostate): 10.5 µM
- TGI (UACC-257 melanoma): 3.87 µM
- TGI (BT-549 breast): 3.43 µM
- TGI (CAKI-1 renal): 4.55 µM
- TGI (SF-295 CNS): 10.7 µM
- TGI (SF-268 CNS): 7.44 µM
- TGI (PC-3 prostate): 4.48 µM
- TGI (OVCAR-4 ovarian): 3.02 µM
- TGI (SN12C renal): 3.36 µM
- TGI (MDA-MB-435): 9.29 µM
- TGI (MDA-MB-231 breast): 3.55 µM
- TGI (SR leukemia): 4.96 µM
- TGI (IGROV1 ovarian): 3.22 µM
- TGI (UO-31 renal): 3.68 µM
- TGI (SK-MEL-5 melanoma): 2.95 µM
- TGI (LOX IMVI melanoma): 0.299 µM
- TGI (786-0 renal): 1.71 µM
- TGI (OVCAR-8 ovarian): 6.25 µM
- TGI (SK-OV-3 ovarian): 21.2 µM
- TGI (MDA-N): 2.81 µM
- TGI (OVCAR-3 ovarian): 4 µM
- TGI (TK-10 renal): 4.94 µM
- TGI (SNB-19 CNS): 18 µM
- TGI (HOP-92 NSCLC): 2.72 µM
- TGI (T-47D breast): 3.07 µM
- TGI (CCRF-CEM leukemia): 1.84 µM
- TGI (HS 578T breast): 4.97 µM
- TGI (NCI/ADR-RES ovarian): 8.98 µM
- TGI (HCT-116 colon): 3.25 µM
- TGI (NCI-H522 lung): 3.5 µM
- TGI (COLO 205 colon): 2.8 µM
- TGI (NCI-H460 lung): 8.53 µM
- TGI (EKVX NSCLC): 19.6 µM
- TGI (MCF7 breast): 3.01 µM
- TGI (OVCAR-5 ovarian): 17.9 µM
- TGI (MALME-3M melanoma): 3.05 µM
- TGI (HOP-62 NSCLC): 9.58 µM
- TGI (ACHN renal): 6.51 µM
- TGI (UACC-62 melanoma): 2.01 µM
- TGI (A498 renal): 9.68 µM
- TGI (SNB-75 CNS): 3.43 µM
- TGI (SK-MEL-28 melanoma): 3.37 µM
- TGI (MOLT-4 leukemia): 2.01 µM
- TGI (A549 NSCLC): 11.8 µM
- TGI (NCI-H226 lung): 10.2 µM
- TGI (SF-539 CNS): 3.2 µM
- TGI (SW-620 colon): 1.94 µM
- TGI (HCT-15 colon): 2.48 µM
- TGI (KM12 colon): 7.02 µM

Structure (SMILES): C(=N\c1nc2cc3sc(/N=C/c4cccs4)nc3cc2s1)/c1cccs1
- TGI (M14 melanoma): > 100 µM
- TGI (HL-60(TB) leukemia): > 100 µM
- TGI (NCI-H23 lung): > 100 µM
- TGI (HT29 colon): > 100 µM
- TGI (RXF 393 renal): > 100 µM
- TGI (DU-145 prostate): > 100 µM
- TGI (UACC-257 melanoma): > 100 µM
- TGI (BT-549 breast): > 100 µM
- TGI (CAKI-1 renal): > 100 µM
- TGI (SF-295 CNS): > 100 µM
- TGI (SF-268 CNS): > 100 µM
- TGI (PC-3 prostate): > 100 µM
- TGI (OVCAR-4 ovarian): > 100 µM
- TGI (SN12C renal): > 100 µM
- TGI (MDA-MB-435): > 100 µM
- TGI (MDA-MB-231 breast): > 100 µM
- TGI (SR leukemia): > 100 µM
- TGI (IGROV1 ovarian): > 100 µM
- TGI (UO-31 renal): > 100 µM
- TGI (SK-MEL-5 melanoma): > 100 µM
- TGI (LOX IMVI melanoma): > 100 µM
- TGI (786-0 renal): > 100 µM
- TGI (OVCAR-8 ovarian): > 100 µM
- TGI (SK-OV-3 ovarian): > 100 µM
- TGI (MDA-N): > 100 µM
- TGI (OVCAR-3 ovarian): > 100 µM
- TGI (TK-10 renal): > 100 µM
- TGI (SNB-19 CNS): > 100 µM
- TGI (HOP-92 NSCLC): > 100 µM
- TGI (T-47D breast): > 100 µM
- TGI (CCRF-CEM leukemia): > 100 µM
- TGI (HS 578T breast): > 100 µM
- TGI (NCI/ADR-RES ovarian): > 100 µM
- TGI (HCT-116 colon): > 100 µM
- TGI (NCI-H522 lung): > 100 µM
- TGI (COLO 205 colon): 12.4 µM
- TGI (NCI-H460 lung): > 100 µM
- TGI (EKVX NSCLC): > 100 µM
- TGI (RPMI-8226 leukemia): > 100 µM
- TGI (U251 CNS): > 100 µM
- TGI (MCF7 breast): > 100 µM
- TGI (OVCAR-5 ovarian): > 100 µM
- TGI (MALME-3M melanoma): > 100 µM
- TGI (HOP-62 NSCLC): > 100 µM
- TGI (ACHN renal): > 100 µM
- TGI (A498 renal): > 100 µM
- TGI (K-562 leukemia): > 100 µM
- TGI (SNB-75 CNS): > 100 µM
- TGI (SK-MEL-28 melanoma): > 100 µM
- TGI (MOLT-4 leukemia): > 100 µM
- TGI (A549 NSCLC): > 100 µM
- TGI (SK-MEL-2 melanoma): > 100 µM
- TGI (NCI-H226 lung): 88.1 µM
- TGI (SF-539 CNS): > 100 µM
- TGI (HCT-15 colon): > 100 µM
- TGI (KM12 colon): > 100 µM
